Reference: patent US20240109910A1, “HEXAHYDRO-5,8-EPOXYCYCLOHEPTA[c]PYRAZOLE DERIVATIVES USEFUL AS MODULATORS OF THE CB1 AND / OR CB2 RECEPTORS” (JANSSEN PHARMACEUTICA NV, priority 2019, published 2024)

Biological target: hCB2 receptor (Homo sapiens, UniProt P34972)
Assay: Agonism of CB2 by detection of cAMP using HTRF
Format: cell-based
Details: CHO cells stably expressing CB2 receptor; for EC50: cAMP HTRF, forskolin-stimulated, average if tested more than once, read-out: hCB2 CHO EC50; for Emax: normalized to DMSO and maximal activation (5 nM CP55940)
Protocol: Method for Assaying Agonism of CB1 or CB2 by Detection of cAMP Using Homogeneous Time-Resolved Fluorescence (HTRF®)
CHOP-K1 cells stably expressing the CB1 receptor (PerkinElmer, ES-110-C) or the CB2 receptor (PerkinElmer, ES-111-CF) were seeded into 384 well white TC-treated plates (Greiner 781080) at 7000 cells per well in Ham's media (Gibco #31765-035) supplemented with 10% FBS (Gibco #16000-044) and 500 μg/mL Geneticin (Gibco #10131-027) and cultured overnight. The next day, plates were washed one time in assay buffer (HBSS with Ca^2+ and Mg^2+ (Corning #21-023-CV)+20 mM HEPES (Corning #25-060-Cl) and 0.01% BSA (Sigma A2153)). In a separate compound plate (Greiner 781201-906), 50 nL of test compound or DMSO was transferred using the Echo 550 (Labcyte), then 40 μL/well of assay buffer with 0.5 mM IBMX, 2 μM Forskolin (Sigma F3917), and 0.01% BSA was added. For the CB1 assay, assay buffer was dumped from the cell plate and fresh assay buffer containing 0.5 mM IBMX (Sigma I5679) was added at 30 μL/well, and the plate was incubated for 1 hr at 37° C., 5% CO2. Following the IBMX pre-treatment step, buffer was dumped from the cell plate, and 20 μL/well of the assay buffer with test compound was transferred into the cell plate with a subsequent incubation of 20 min at room temperature. Reagents for cAMP detection (cisbio 62AM4PEJ) were prepared and subsequently transferred to the cell plate at 20 μL/well. Following a 1 hr incubation at room temperature, the plate was read on the Pherastar FX (BMG, excitation 320 nm, detection at 620 nm (donor) and 665 nm (acceptor)). The ratio of signal at 665 nm/620 nm was determined for each well in the plate. For each assay day, a cAMP standard curve was run in parallel to assess the range of response and determine the concentration of cAMP in each well. Control wells (n=16 of each) with no activation of CB1 receptor (DMSO) and maximal activation (5 nM CP55940, Sigma) were used to normalize the data and to determine signal-to-background ratio and Z′. For the CB2 assay, conditions were as described above for the CB1 assay, except that the IBMX preincubation step was not used and that the 20 min compound incubation step occurred in the incubator at 37° C., 5% CO2.
EC50 values were calculated from dose response curves by nonlinear regression analysis using PRISM software.
Representative compounds of the present invention were tested according to the procedures described in Biological Example 1 above, with results as listed in Table 3, below. If a compound was tested more than once (due to multiple samples or batches), then the value listed in Table 3 below represents the average of the measured values.

Chain of hCB2 receptor (P34972 whole entry): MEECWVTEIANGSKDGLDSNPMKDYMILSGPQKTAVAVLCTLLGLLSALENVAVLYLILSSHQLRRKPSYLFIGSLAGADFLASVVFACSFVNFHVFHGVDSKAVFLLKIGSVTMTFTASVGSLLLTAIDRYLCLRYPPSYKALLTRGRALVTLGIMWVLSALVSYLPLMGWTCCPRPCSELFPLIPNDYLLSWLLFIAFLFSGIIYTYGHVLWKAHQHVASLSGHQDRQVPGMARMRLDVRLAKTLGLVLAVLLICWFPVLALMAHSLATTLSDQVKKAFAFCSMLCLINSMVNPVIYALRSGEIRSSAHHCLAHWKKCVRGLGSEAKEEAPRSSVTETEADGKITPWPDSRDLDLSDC

Compound	EC50	Emax
CC(C)(C)NC(=O)c1nn(-c2c[n+]([O-])ccn2)c2c1C1CCC(C2)O1 (stereo not drawn) [Compound 48]	1.98 nM	99.9%
CC(C)(C)c1nc(-c2nn(-c3cnccn3)c3c2CC2CCC3O2)no1 (stereo not drawn) [Compound 32, 3-(5-(tert-butyl)-1,2,4-oxadiazol-3-yl)-1-(pyrazin-2-yl)-1,4,5,6,7,8-hexahydro-5,8-epoxycyclohepta[c]pyrazole]	0.33 nM	100%
CC(C)(C)[C@@H](CO)NC(=O)c1nn(-c2c[n+]([O-])ccn2)c2c1C[C@@H]1CC[C@H]2O1 [Compound 15, 3-((5S,8R)-3-(((S)-1-hydroxy-3,3-dimethylbutan-2-yl)carbamoyl)-5,6,7,8-tetrahydro-5,8-epoxycyclohepta[c]pyrazol-1(4H)-yl)pyrazine 1-oxide]	0.34 nM	101%
CC(C)(C)c1csc(-c2nn(-c3c[n+]([O-])ccn3)c3c2CC2CCC3O2)n1 (stereo not drawn) [Compound 44, 3-(3-(4-(tert-butyl)thiazol-2-yl)-5,6,7,8-tetrahydro-5,8-epoxycyclohepta[c]pyrazol-1(4H)-yl)pyrazine 1-oxide]	46.3 nM	84.6%
CC(C)(C)c1cnc(-c2nn(-c3cnccn3)c3c2CC2CCC3O2)s1 (stereo not drawn) [Compound 34, 3-(5-(tert-butyl)thiazol-2-yl)-1-(pyrazin-2-yl)-1,4,5,6,7,8-hexahydro-5,8-epoxycyclohepta[c]pyrazole]	0.24 nM	99.7%
CC(C)(C)c1cnc(-c2nn(-c3cnccn3)c3c2CC2CCC3O2)o1 (stereo not drawn) [Compound 40, 3-(5-(tert-butyl)oxazol-2-yl)-1-(pyrazin-2-yl)-1,4,5,6,7,8-hexahydro-5,8-epoxycyclohepta[c]pyrazole]	0.13 nM	99.7%
O=C(NC1(C(F)(F)F)CC1)c1nn(-c2cnccn2)c2c1CC1CCC2O1 (stereo not drawn) [Compound 9, 1-(pyrazin-2-yl)-N-(1-(trifluoromethyl)cyclopropyl)-1,4,5,6,7,8-hexahydro-5,8-epoxycyclohepta[c]pyrazole-3-carboxamide]	0.24 nM	100%
CC(C)(C)NC(=O)c1c2c(nn1-c1cnccn1)C1CCC(C2)O1 (stereo not drawn) [Compound 4, N-(tert-butyl)-2-(pyrazin-2-yl)-2,4,5,6,7,8-hexahydro-5,8-epoxycyclohepta[c]pyrazole-3-carboxamide]	4070 nM	75.8%
CC(C)(C)[C@@H](CO)NC(=O)c1nn(-c2cnccn2)c2c1C[C@@H]1CC[C@H]2O1 [Compound 7, (5S,8R)-N-((S)-1-hydroxy-3,3-dimethylbutan-2-yl)-1-(pyrazin-2-yl)-1,4,5,6,7,8-hexahydro-5,8-epoxycyclohepta[c]pyrazole-3-carboxamide]	0.56 nM	100%
CC(C)(C)NC(=O)c1c2c(nn1-c1c[n+]([O-])ccn1)CC1CCC2O1 (stereo not drawn) [Compound 49]	2670 nM	80.3%
CCC(C)(C)c1noc(-c2nn(-c3cnccn3)c3c2CC2CCC3O2)n1 (stereo not drawn) [Compound 36, 3-(3-(tert-pentyl)-1,2,4-oxadiazol-5-yl)-1-(pyrazin-2-yl)-1,4,5,6,7,8-hexahydro-5,8-epoxycyclohepta[c]pyrazole]	0.04 nM	99.8%
CC(C)(C)c1nnc(-c2nn(-c3cnccn3)c3c2CC2CCC3O2)o1 (stereo not drawn) [Compound 39, 3-(5-(tert-butyl)-1,3,4-oxadiazol-2-yl)-1-(pyrazin-2-yl)-1,4,5,6,7,8-hexahydro-5,8-epoxycyclohepta[c]pyrazole]	0.26 nM	100%
CC(C)(C)NC(=O)c1nn(-c2ccc(F)cc2F)c2c1C1CCC(C2)O1 (stereo not drawn) [Compound 47]	559 nM	82.5%
CC(C)(C)NC(=O)c1nn(-c2cnccn2)c2c1C1CCC(C2)O1 (stereo not drawn) [Compound 45]	22.9 nM	98.1%
O=C(NC1(C(F)(F)F)CC1)c1nn(-c2c[n+]([O-])ccn2)c2c1CC1CCC2O1 (stereo not drawn) [Compound 17, 3-(3-((1-(trifluoromethyl)cyclopropyl)carbamoyl)-5,6,7,8-tetrahydro-5,8-epoxycyclohepta[c]pyrazol-1(4H)-yl)pyrazine 1-oxide]	0.12 nM	100%
